Reference: patent US4699905A, “Perhydrothiazepine derivatives, their preparation and their therapeutic use” (Sankyo Company, Limited, priority 1984, dated 1987)

Target: T1, ACE extracted from rabbit lungs (Oryctolagus cuniculus, UniProt P12822)
T1 construct: solutions of ACE extracted from rabbit lungs; from tissue; host or cells: rabbit lung
T1 sequence (P12822 34-1310): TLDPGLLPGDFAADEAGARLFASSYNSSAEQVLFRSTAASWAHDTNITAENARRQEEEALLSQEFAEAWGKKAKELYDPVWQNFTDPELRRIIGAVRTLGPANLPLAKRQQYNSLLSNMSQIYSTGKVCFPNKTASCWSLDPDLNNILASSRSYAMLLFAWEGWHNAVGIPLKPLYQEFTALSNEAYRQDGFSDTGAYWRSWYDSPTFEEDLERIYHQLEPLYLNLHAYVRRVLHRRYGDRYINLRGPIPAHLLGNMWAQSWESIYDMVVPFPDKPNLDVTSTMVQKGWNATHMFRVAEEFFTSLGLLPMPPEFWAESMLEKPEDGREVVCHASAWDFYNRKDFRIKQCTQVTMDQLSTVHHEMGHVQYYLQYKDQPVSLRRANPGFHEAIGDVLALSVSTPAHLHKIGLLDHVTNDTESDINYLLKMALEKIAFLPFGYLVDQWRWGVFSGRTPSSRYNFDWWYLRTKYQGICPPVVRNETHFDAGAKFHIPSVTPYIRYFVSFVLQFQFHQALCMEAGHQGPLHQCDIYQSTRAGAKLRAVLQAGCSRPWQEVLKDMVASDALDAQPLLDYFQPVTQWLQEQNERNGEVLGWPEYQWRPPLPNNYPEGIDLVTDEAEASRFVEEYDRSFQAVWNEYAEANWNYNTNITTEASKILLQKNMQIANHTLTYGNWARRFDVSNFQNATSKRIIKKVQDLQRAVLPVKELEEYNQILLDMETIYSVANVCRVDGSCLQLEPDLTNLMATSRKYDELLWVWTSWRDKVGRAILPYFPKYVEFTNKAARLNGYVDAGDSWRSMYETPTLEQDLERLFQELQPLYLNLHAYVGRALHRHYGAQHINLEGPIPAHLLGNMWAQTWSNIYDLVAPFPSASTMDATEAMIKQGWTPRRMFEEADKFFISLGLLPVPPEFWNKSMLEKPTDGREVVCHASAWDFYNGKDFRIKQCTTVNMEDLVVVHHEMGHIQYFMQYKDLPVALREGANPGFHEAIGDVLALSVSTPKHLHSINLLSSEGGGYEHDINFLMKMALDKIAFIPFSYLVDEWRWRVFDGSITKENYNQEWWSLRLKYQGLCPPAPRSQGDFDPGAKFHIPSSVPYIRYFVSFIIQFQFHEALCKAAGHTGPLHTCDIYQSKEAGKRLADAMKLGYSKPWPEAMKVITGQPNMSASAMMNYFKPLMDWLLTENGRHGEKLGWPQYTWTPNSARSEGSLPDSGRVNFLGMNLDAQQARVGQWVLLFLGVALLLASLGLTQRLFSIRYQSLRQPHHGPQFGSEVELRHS
Test: inhibition of ACE activity in vitro (hippurylhistidylleucine substrate; procedure of Cushman et al.)
Type: biochemical
Conditions: borate buffer with sodium chloride, pH 8.3, 37° C., 30 minutes, hippuric acid by UV 228 nm
Experimental: As noted above, the compounds of the present invention have the ability to inhibit the activity of ACE, the enzyme which converts angiotensin I to angiotensin II and also inactivates bradykinin. […] W. Cushman et al. [Biochemical Pharmachology, 20, 1637 (1971)]. […] The enzymatic reaction was allowed to proceed at 37° C. for 30 minutes, after which time the reaction was terminated by adding 1N aqueous hydrochloric acid. […] The residual hippuric acid was dissolved in water. The amount of hippuric acid in the resulting aqueous solution was determined by the absorbency to ultraviolet radiation at 228 nm. These values were then plotted to form a curve indicating the relationship between the amount of hippuric acid formed and the concentration of the test compound. The IC50 value can be obtained by reading on this curve the concentration of the test compound which reduces the amount of hippuric acid formed to one half of that formed when no test compound is present.

SMILES	IC50 [nM]
O=C(O)CN1C(=O)[C@@H](N[C@@H](CCc2ccccc2)C(=O)O)CSC[C@@H]1Cc1ccccc1 [K]	1.3
O=C(O)CN1CC(c2ccco2)SCC(NC(CCc2ccccc2)C(=O)O)C1=O (single isomer, unassigned) [F]	3
O=C(O)CN1CC(c2cccc3ccccc23)SCC(NC(CCc2ccccc2)C(=O)O)C1=O (single isomer, unassigned) [H]	1.6
C[C@@H]1CSC[C@H](N[C@@H](CCc2ccccc2)C(=O)O)C(=O)N1CC(=O)O [J]	3
O=C(O)CN1CC(c2ccsc2)SCC(NC(CCc2ccccc2)C(=O)O)C1=O (single isomer, unassigned) [D]	2.5
O=C(O)CN1CC(c2ccc3ccccc3c2)SCC(NC(CCc2ccccc2)C(=O)O)C1=O (single isomer, unassigned) [I]	2
O=C(O)CN1C(=O)[C@@H](N[C@@H](CCc2ccccc2)C(=O)O)CSC[C@H]1c1ccccc1 [A]	1.1
O=C(O)CN1C(=O)[C@@H](N[C@@H](CCc2ccccc2)C(=O)O)CSC[C@H]1c1cccs1 [G]	1.4
O=C(O)CN1CC(c2cccs2)SCC(NC(CCc2ccccc2)C(=O)O)C1=O (single isomer, unassigned) [E]	2.4
O=C(O)CN1CC(c2ccccc2)SCC(NC(CCc2ccccc2)C(=O)O)C1=O (single isomer, unassigned) [C]	2.4
CC(C)[C@@H]1CSC[C@H](N[C@@H](CCc2ccccc2)C(=O)O)C(=O)N1CC(=O)O [B]	1.6
